The values below come from PMC4245162 (ACS Chemical Biology, 2014).

Molecules are shown by their SMILES.

The assay addresses T1, SETD8 (Homo sapiens, UniProt Q9NQR1).
T1 sequence (Q9NQR1 191-352 isoform Q9NQR1-2): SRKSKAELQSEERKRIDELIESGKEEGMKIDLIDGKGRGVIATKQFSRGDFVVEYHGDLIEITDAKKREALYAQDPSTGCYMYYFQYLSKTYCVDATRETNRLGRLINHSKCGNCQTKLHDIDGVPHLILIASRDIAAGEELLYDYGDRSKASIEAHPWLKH
The assay can be described thus: secondary radiometric filter paper assay, SETD8. It is filed as biochemical. Particulars: read-out: IC50 against SETD8; apparent IC50; SAM/peptide/enzyme = 0.75:1.5:1.

What is called IC50 is the concentration that inhibits the measured activity by half. As for `O=C1C(SCCO)=C(SCCO)C(=O)c2ccccc21` [NSC95397], the concentration for half-maximal inhibition (IC50) stood at 82 µM.
